According to ChEMBL document CHEMBL4819019, “Design, synthesis, antibacterial activity and toxicity of novel quaternary ammonium compounds based on pyridoxine and fatty acids” (Eur J Med Chem, 2021):

What was measured:
[1] = tested on: Pseudomonas aeruginosa; assay: Antibacterial activity against Pseudomonas aeruginosa ATCC 27853 measured after 24 hrs by broth microdilution method; format: functional
[2] = Lipophilicity, logP of the compound; format: physicochemical; settings: octanol/water
[3] = tested on: Bacillus subtilis; assay: Antibacterial activity against Bacillus subtilis 168 measured after 24 hrs by broth microdilution method; format: functional
[4] = tested on: Escherichia coli; assay: Antibacterial activity against Escherichia coli MG 1655 measured after 24 hrs by broth microdilution method; format: functional
[5] = tested on: Staphylococcus aureus; assay: Antibacterial activity against Staphylococcus aureus ATCC 29213 measured after 24 hrs by broth microdilution method; format: functional
[6] = tested on: Micrococcus luteus; assay: Antibacterial activity against Micrococcus luteus clinical isolate measured after 24 hrs by broth microdilution method; format: functional
[7] = Genotoxicity in Salmonella typhimurium TA1535 assessed as number of revertant by Ames spot test relative to solvent control; format: toxicity; settings: salmonella enterica subsp. enterica serovar typhimurium
[8] = Genotoxicity in Salmonella typhimurium TA100 assessed as number of revertant by Ames spot test relative to solvent control; format: toxicity; settings: salmonella enterica subsp. enterica serovar typhimurium
[9] = Genotoxicity in Salmonella typhimurium TA98 assessed as number of revertant by Ames spot test relative to solvent control; format: toxicity; settings: salmonella enterica subsp. enterica serovar typhimurium
[10] = Genotoxicity in Salmonella typhimurium TA1537 assessed as number of revertant by Ames spot test relative to solvent control; format: toxicity; settings: salmonella enterica subsp. enterica serovar typhimurium

MIC [1]	logP [2]	MIC [3]	MIC [4]	MIC [5]	MIC [6]	Structure (SMILES)	Ratio [7]	Ratio [8]	Ratio [9]	Ratio [10]
> 64 µg/mL	2.34	> 64 µg/mL	> 64 µg/mL	> 64 µg/mL	> 64 µg/mL	CCCCCCCCCC(C)C1OCc2c(C[N+](C)(C)CCCNC(=O)CCCCC)cnc(C)c2O1.[Cl-] (centres undefined)				
> 64 µg/mL	3.19	1 µg/mL	> 64 µg/mL	2 µg/mL	2 µg/mL	CCCCCCCCCCCCCC(=O)NCCC[N+](C)(C)Cc1cnc(C)c2c1COC(CCCCC)O2.[Cl-] (centres undefined)				
64 µg/mL	1.25	4 µg/mL	16 µg/mL	4 µg/mL	4 µg/mL	CCCCCCCCCCCC(=O)OCC[N+](C)(C)Cc1cnc(C)c2c1COC(C)(C)O2.[Cl-]				
4 µg/mL	3.03	2 µg/mL	> 64 µg/mL	2 µg/mL	1 µg/mL	CCCCCCCCCCCCCC(=O)OCCC[N+](C)(C)Cc1cnc(C)c2c1COC(CCC)O2.[Cl-] (centres undefined)				
> 64 µg/mL	1.52	0.5 µg/mL	64 µg/mL	1 µg/mL	2 µg/mL	CCCCCCCCCCCCCC(=O)OCCC[N+](C)(C)Cc1nc(C)c2c(c1CO)COC(C)(C)O2.[Cl-]				
> 64 µg/mL	2.35	2 µg/mL	64 µg/mL	2 µg/mL	2 µg/mL	CCCCCCCCCCCCCC(=O)OCCC[N+](C)(C)Cc1nc(C)c2c(c1CO)COC(CCC)O2.[Cl-] (centres undefined)				
2 µg/mL	2.93	4 µg/mL	32 µg/mL	1 µg/mL	1 µg/mL	CCCCCCCCCCCCCCCC(=O)NCC[N+](C)(C)Cc1cnc(C)c2c1COC(C)(C)O2.[Cl-]				
> 64 µg/mL	4.02	> 64 µg/mL	> 64 µg/mL	> 64 µg/mL	> 64 µg/mL	CCCCCCCCCCCCCCCCCC(=O)NCC[N+](C)(C)Cc1cnc(C)c2c1COC(C)(CCC)O2.[Cl-] (centres undefined)				
> 64 µg/mL	3.19	4 µg/mL	2 µg/mL	2 µg/mL	2 µg/mL	CCCCCCCCCCCCCCCC(=O)NCCC[N+](C)(C)Cc1cnc(C)c2c1COC(C)(CCC)O2.[Cl-] (centres undefined)				
64 µg/mL	0.58	8 µg/mL	64 µg/mL	8 µg/mL	16 µg/mL	CCCCCCCCCCCC(=O)NCCC[N+](C)(C)Cc1cnc(C)c2c1COC(C)(C)O2.[Cl-]				
> 64 µg/mL	1.62	1 µg/mL	64 µg/mL	2 µg/mL	1 µg/mL	CCCCCCCCCCCCCC(=O)NCCC[N+](C)(C)Cc1nc(C)c2c(c1CO)COC(CCC)O2.[Cl-] (centres undefined)				
> 64 µg/mL	-1.25	> 64 µg/mL	> 64 µg/mL	> 64 µg/mL	> 64 µg/mL	CCCCCC(=O)NCCC[N+](C)(C)Cc1cnc(C)c2c1COC(CCC)O2.[Cl-] (centres undefined)				
> 64 µg/mL	2.3	2 µg/mL	2 µg/mL	2 µg/mL	2 µg/mL	CCCCCCCCCCCCCC(=O)NCCC[N+](C)(C)Cc1cnc(C)c2c1COC(C)(CCC)O2.[Cl-] (centres undefined)				
> 64 µg/mL	4.53	> 64 µg/mL	> 64 µg/mL	> 64 µg/mL	> 64 µg/mL	CCCCCCCCCCCCCC(=O)NCCC[N+](C)(C)Cc1cnc(C)c2c1COC(CCCCCCCC)O2.[Cl-] (centres undefined)				
> 64 µg/mL	3.92	4 µg/mL	> 64 µg/mL	8 µg/mL	8 µg/mL	CCCCCCCCCCCCCC(=O)OCCC[N+](C)(C)Cc1cnc(C)c2c1COC(CCCCC)O2.[Cl-] (centres undefined)				
32 µg/mL	1.41	4 µg/mL	8 µg/mL	1 µg/mL	4 µg/mL	CCCCCCCCCCCC(=O)NCCC[N+](C)(C)Cc1cnc(C)c2c1COC(C)(CCC)O2.[Cl-] (centres undefined)				
32 µg/mL	3.92	32 µg/mL	> 64 µg/mL	32 µg/mL	8 µg/mL	CCCCCCCCCCCCCCCC(=O)OCCC[N+](C)(C)Cc1cnc(C)c2c1COC(CCC)O2.[Cl-] (centres undefined)				
16 µg/mL	2.2	2 µg/mL	16 µg/mL	2 µg/mL	2 µg/mL	CCCCCCCCCCCCCC(=O)OCCC[N+](C)(C)Cc1cnc(C)c2c1COC(C)(C)O2.[Cl-]				
32 µg/mL	1.31	1 µg/mL	8 µg/mL	2 µg/mL	2 µg/mL	CCCCCCCCCCCC(=O)OCCC[N+](C)(C)Cc1cnc(C)c2c1COC(C)(C)O2.[Cl-]				
8 µg/mL	3.19	8 µg/mL	> 64 µg/mL	4 µg/mL	2 µg/mL	CCCCCCCCCCCCCCCCCC(=O)NCC[N+](C)(C)Cc1cnc(C)c2c1COC(C)(C)O2.[Cl-]				
> 64 µg/mL	5.25	> 64 µg/mL	> 64 µg/mL	> 64 µg/mL	> 64 µg/mL	CCCCCCCCCCCCCC(=O)OCCC[N+](C)(C)Cc1cnc(C)c2c1COC(CCCCCCCC)O2.[Cl-] (centres undefined)				

Continued, molecule first:

Structure (SMILES)	MIC [1]	logP [2]	MIC [3]	MIC [4]	MIC [5]	MIC [6]	Ratio [7]	Ratio [8]	Ratio [9]	Ratio [10]
CCCCCCCCCCCC(=O)OCC[N+](C)(C)Cc1cnc(C)c2c1COC(CCC)O2.[Cl-] (centres undefined)	32 µg/mL	2.08	2 µg/mL	4 µg/mL	1 µg/mL	2 µg/mL				
CCCCCC(=O)NCCC[N+](C)(C)Cc1cnc(C)c2c1COC(C)(C)O2.[Cl-]	> 64 µg/mL	-2.09	> 64 µg/mL	> 64 µg/mL	> 64 µg/mL	> 64 µg/mL				
CCCCCCCCCCCCCCCC(=O)NCCC[N+](C)(C)Cc1cnc(C)c2c1COC(C)(C)O2.[Cl-]	8 µg/mL	2.36	2 µg/mL	> 64 µg/mL	4 µg/mL	2 µg/mL				
COS(C)(=O)=O [METHANESULFONIC ACID METHYL ESTER]							30	2.7		
Nc1ccc([N+](=O)[O-])cc1N									4.2	3.7
CCCCCCCCCCCCCC(=O)OCC[N+](C)(C)Cc1nc(C)c2c(c1CO)COC(CCC)O2.[Cl-] (centres undefined)	> 64 µg/mL	2.29	2 µg/mL	64 µg/mL	2 µg/mL	2 µg/mL				
CCCCCCCCCCCC(=O)NCC[N+](C)(C)Cc1cnc(C)c2c1COC(C)(C)O2.[Cl-]	32 µg/mL	0.52	8 µg/mL	32 µg/mL	1 µg/mL	4 µg/mL				
CCCCCCCCCCCCCCCCCC[N+](C)(C)Cc1cnc(C)c2c1COC(C)(C)O2.[Cl-]	> 64 µg/mL	4.35	> 64 µg/mL	> 64 µg/mL	4 µg/mL	16 µg/mL				
CCCCCCCCCCCCCCCC(=O)OCCC[N+](C)(C)Cc1cnc(C)c2c1COC(C)(C)O2.[Cl-]	32 µg/mL	3.09	8 µg/mL	> 64 µg/mL	16 µg/mL	2 µg/mL				
CCCCCCCCCCCCCC(=O)NCCC[N+](C)(C)Cc1nc(C)c2c(c1CO)COC(C)(C)O2.[Cl-]	> 64 µg/mL	0.79	2 µg/mL	16 µg/mL	2 µg/mL	1 µg/mL				
CCCCCCCCCCCCCCCC(=O)NCC[N+](C)(C)Cc1cnc(C)c2c1COC(C)(CCC)O2.[Cl-] (centres undefined)	> 64 µg/mL	3.13	16 µg/mL	> 64 µg/mL	8 µg/mL	16 µg/mL				
CCCCCCCC[N+](C)(C)Cc1nc(C)c2c(c1CO)COC(C)(C)O2.[Cl-]	> 64 µg/mL	-0.78	64 µg/mL	64 µg/mL	64 µg/mL	64 µg/mL				
CCCCCCCCCCCCCCCCCC(=O)NCCC[N+](C)(C)Cc1cnc(C)c2c1COC(C)(CCC)O2.[Cl-] (centres undefined)	> 64 µg/mL	4.08	> 64 µg/mL	> 64 µg/mL	> 64 µg/mL	> 64 µg/mL				
CCCCCCCCCCCCCC(=O)NCC[N+](C)(C)Cc1nc(C)c2c(c1CO)COC(CCC)O2.[Cl-] (centres undefined)	> 64 µg/mL	1.56	2 µg/mL	64 µg/mL	2 µg/mL	4 µg/mL				
CCCCCCCCCCCCCCCC(=O)OCC[N+](C)(C)Cc1cnc(C)c2c1COC(CCC)O2.[Cl-] (centres undefined)	8 µg/mL	3.86	4 µg/mL	> 64 µg/mL	2 µg/mL	1 µg/mL				
CCCCCCCCCCCCCCCC(=O)OCC[N+](C)(C)Cc1cnc(C)c2c1COC(C)(C)O2.[Cl-]	4 µg/mL	3.03	1 µg/mL	> 64 µg/mL	0.5 µg/mL	0.5 µg/mL				
